Results: patent US20220274967A1, “BCAT MODULATION” (Icagen, LLC, priority 2019, published 2022)

Columns and labels:
propionyl carnitine = assay: Propionyl carnitine in conditioned media of propionic acidemia fibroblasts; format: cell-based, human; settings: 24 hours, increasing concentrations, FIG. 1
Method: could inhibit levels of the downstream metabolite propionyl carnitine, which is found to be elevated in patients with propionic acidemia, by analyzing propionyl carnitine levels in conditioned media in human fibroblasts from a patient with propionic acidemia treated with a dose response of the compound of the disclosure.
(§1) Primary human fibroblasts from a patient with propionic acidemia (Coriell #GM00371) were plated in complete media (EMEM, 15% FBS) in a 96-well plate at 10,000 cells/well and incubated overnight at 37° C. at 5% CO2. Compounds were serially diluted initially in DMSO then into serum-free EMEM media. The cells were then washed with D-PBS before addition of the media containing the diluted compound, and were then incubated at 37° C. at 5% CO2 overnight.
The conditioned media was removed from cells after 24 hours of compound treatment and was diluted 2× with D3-propionyl carnitine internal standard diluted in MS-grade methanol. Plates were sealed and samples were frozen at −80DGC for more than 30 minutes, followed by thawing at room temperature and centrifugation for 10 minutes at 4000 rpm. The samples were then analyzed for propionyl carnitine by LC-LC/MS using TSQ Vantage using a Kinetex 2.6 μm Biphenyl 2.1×50 mm column with Mobile Phase A of 95% (0.1% Formic acid in Water)+5% Water and Mobile Phase B of 95% McOH+5% (0.1% Formic acid in Water).

[1] = system: Primary human fibroblasts from a patient with propionic acidemia (Coriell #GM00371); assay: Cell viability (cell Titer-Glo) of propionic acidemia fibroblasts; format: cell-based; settings: FIG. 1
Method: as §1
Cell viability was also determined with cell Titer-Glo reagent (Promega) by addition of equal volumes of D-PBS and Cell Titer-Glo reagent to cell wells and following manufacturer's recommendations for detection of luminescence signal.

[2] = system: branched chain amino acids (BCAA) in plasma; assay: Repetitive treatment with BCAT2 inhibitor compound: plasma amino acids; format: in vivo; settings: mice
Method: Male, C57Black/6J mice (6-7 weeks, Jackson Laboratories, Bar Harbor, Me.) were used in all in vivo experiments. Animals were maintained on a 12 hour light/dark reverse cycle in a temperature- and humidity-controlled room with access to food and water ad libitum. Before the experiment, animals underwent a 7-day acclimation period.
All biological samples were stored in −80° C. until analysis. […] In particular, 20 μL of mouse plasma were precipitated with 180 μL acetonitrile containing 5 μg/ml D8-Valine. Samples were vortexed vigorously and centrifuged to remove precipitated protein. 2 μL of supernatant was injected on a Phenomenex Gemini C18 column (4.6 mm×150 mm, 5 μm particle size) for separation under a linear gradient from 2% ACN to 50% ACN in 10 minutes followed by a 7 minute equilibration with 2% ACN.
Animals were grouped based on pair matched body weight and received either vehicle (0.5% HPMC K100+0.1 Tween 80, pH=10.0) or a daily dose of compound (200 mg/kg, PO) for 9 days. From day 1 to day 5, all animals were provided with normal diet. […] On day 9, blood, bladder urine as well as tissue samples (liver, brain, heart, muscle and kidney) were harvested 4 hours after the last dose. Three mice in each treatment/diet group were retained for a 3-day recovery phase observation. On day 12, blood, bladder urine as well as tissue samples (liver, brain, heart, muscle and kidney) were harvested. During the entire study course (day 1 to day 12), mice were able to access food and water freely. Body weights were measured daily and any abnormal behavior for toxicity signs was recorded.

[3] = Repetitive treatment: body weight and toxicity signs; format: in vivo; settings: mice, 200 mg/kg PO once a day for 9 days and 3-day recovery
Method: […]. Animals were maintained on a 12 hour light/dark reverse cycle in a temperature- and humidity-controlled room with access to food and water ad libitum. Before the experiment, animals underwent a 7-day acclimation period. All procedures involving mice were approved by the Institutional Animal Care and Use Committee of the University of Arizona and were conducted in accordance with Principles of Laboratory Animal Care (National Institutes of Health Publication 85-23, revised in 1985).
Animals were grouped based on pair matched body weight and received either vehicle (0.5% HPMC K100+0.1 Tween 80, pH=10.0) or a daily dose of compound (200 mg/kg, PO) for 9 days. From day 1 to day 5, all animals were provided with normal diet. On day 6, the diet was switched to a precursor enriched chow (700% isoleucine, valine and threonine enriched, TD. 140829; Envigo) for half of the animals; the other half were still fed with normal diet. On day 9, blood, bladder urine as well as tissue samples (liver, brain, heart, muscle and kidney) were harvested 4 hours after the last dose. Three mice in each treatment/diet group were retained for a 3-day recovery phase observation. On day 12, blood, bladder urine as well as tissue samples (liver, brain, heart, muscle and kidney) were harvested. […] Body weights were measured daily and any abnormal behavior for toxicity signs was recorded.

[4] = 200 mg/kg PO for 9 days, normal diet, FIG. 4A
[5] = 200 mg/kg PO, Day 9, precursor-enriched diet, FIG. 4B

CNC(=O)c1ccc2c(c1)nc(-c1ccccn1)n2C1CCCC(NC(=O)c2ccc(Br)s2)C1 (stereo not drawn) [drawing 84]
propionyl carnitine levels (propionyl carnitine): inhibited | impact on cell viability [1]: little impact

CNC(=O)c1ccc2c(c1)nc(-c1ccccn1)n2C1CCCC(NC(=O)c2ccc(Br)s2)C1 (stereo not drawn) [drawing 85]
plasma level of Leu [2, 4]: significantly increased | plasma level of Ser [2, 4]: not | plasma level of Val [2, 4]: significantly increased | levels of BCAAs in plasma, compound vs vehicle [2, 5]: no significant changes | plasma level of leucine [2, 5]: slight but significant decrease | abnormal behaviors reflecting toxicities [3]: no obvious abnormal behaviors reflecting toxicities | body weight ([3]; FIG. 3A): no significant loss
